Patent publication US9458202B2, “Peptidomimetic macrocycles with improved properties” (Aileron Therapeutics, Inc., priority 2008, dated 2016)
Where a SMILES comes first, the peptide text is derived from it. Bridges are numbered along the chain shown (N, C = ends). [ ]: non-standard residue; d: D form. The star is where a group is joined. S5 = C=CCCC[C@](C)(N)C(=O)O; Nle = CCCC[C@H](N)C(=O)O; Aib = CC(C)(N)C(=O)O; Propionyl = CCC(=O)*

Key:
Figure 2 = test: Figure 2; design: AUCall: concentration or dose not given beside the values; conditions: for C0 / half-life / MRT: Sprague-Dawley, rat, plasma, iv; for MRT: read-out: MRTinf_obs
Method: Table printed on a drawing sheet, Figure 2
Footnotes: 2 mg/mL iv bolus in Sprague-Dawley rats (10 mg/kg) / * 0.6 mg/mL iv bolus in Sprague-Dawley rats (3 mg/kg)
The patent's description of the figure: FIG. 2 lists the in vivo half-lives of peptidomimetic macrocycles of the invention. Half-lives were measured in Sprague Dawley rats after one intravenous bolus injection at 0.6 mg/mL or 2 mg/mL of each unlabeled peptidomimetic macrocycle at a 3 mg/kg or 10 mg/kg dose, respectively. Three animals were used per compound and concentrations were determined by mass-spectrometric analysis of blood levels (plasma).
First reader's note: An asterisk before the peptide name marks dosing at 3 mg/kg (0.6 mg/mL) instead of 10 mg/kg (2 mg/mL).

circular dichroism = test: circular dichroism; design: unit not given here; conditions: 20 mM phosphoric acid; pH 2.0; 5 °C; 0.05 mg/mL
Figure 5 = test: Figure 5
Text: Table printed on a drawing sheet, Figure 5
The patent's description of the figure: FIG. 5 illustrates the PK profile in rat and monkey for a peptidomimetic macrocycle of the invention.
First reader's note: The first row combines the substance name (SP2) with the conditions dose, route and species in one cell.

Compound	AUCall (Figure 2)	Cl_obs (Figure 2)	C0 (Figure 2)	half-life (Figure 2)	MRT (Figure 2)	helicity (circular dichroism)	AUC all (Figure 5)	Cmax (Figure 5)	MRTinf (Figure 5)	T ½ (Figure 5)
Ac-QSQQTFSNLWRLLPQN-NH2 [*SP22]	0.075 µg·h/mL	700 mL/min/kg	15.1 µg/mL	< 0.1 h	< 0.1 h	-646				
CC[C@H](C)[C@H](NC(C)=O)C(=O)N[C@@H](Cc1c[nH]c2ccccc12)C(=O)N[C@H](C(=O)N[C@@H](C)C(=O)N[C@@H](CCC(N)=O)C(=O)N[C@@H](CCC(=O)O)C(=O)N[C@@H](CC(C)C)C(=O)N[C@@H](CCCNC(=N)N)C(=O)N[C@@]1(C)CCCC=CCCC[C@@](C)(C(=O)N[C@@H](Cc2ccccc2)C(=O)N[C@@H](CC(N)=O)C(=O)N[C@@H](C)C(=O)N[C@@H](Cc2ccc(O)cc2)C(=O)N[C@@H](Cc2ccc(O)cc2)C(=O)N[C@@H](C)C(=O)N[C@@H](CCCNC(=N)N)C(=O)N[C@@H](CCCNC(=N)N)C(N)=O)NC(=O)[C@H](CC(=O)O)NC(=O)CNC(=O)[C@H]([C@@H](C)CC)NC1=O)[C@@H](C)CC (single isomer, unassigned) [SP2 1 mg/kg IV monkey]							27.275 µg·h/mL	19.049 µg/mL	1.8 h	2.2 h
CC[C@H](C)[C@H](NC(=O)[C@H](CO)NC(=O)[C@H](CCCNC(=N)N)NC(=O)[C@H](C)NC(=O)[C@H](C)NC(=O)[C@]1(C)CCCC=CCCC[C@](C)(NC(=O)[C@H](C)NC(=O)[C@H](CC(C)C)NC(=O)[C@H](Cc2c[nH]cn2)NC(=O)[C@H](CCCNC(=N)N)NC(=O)[C@H](C)NC(=O)[C@@H](NC(=O)[C@H](CC(N)=O)NC(=O)[C@H](CCCNC(=N)N)NC(=O)[C@@H](NC(=O)[C@@H](NC(=O)[C@H](CC(=O)O)NC(C)=O)[C@@H](C)CC)[C@@H](C)CC)[C@@H](C)CC)C(=O)N[C@@H](C(C)C)C(=O)NC(C)(C)C(=O)N[C@@H](CC(=O)O)C(=O)N1)C(N)=O [SP7] (Ac-DIIRNIARHLA[S5]V[Aib]D[S5]AARSI-NH2; staple 12-16)	402.899 µg·h/mL	0.398 mL/min/kg	158 µg/mL	3.9 h	3.1 h					
CCCC[C@H](NC(=O)[C@]1(C)CCCC=CCCC[C@](C)(NC(=O)[C@H](C)NC(=O)[C@H](CC(C)C)NC(=O)[C@H](Cc2c[nH]cn2)NC(=O)[C@H](CCCNC(=N)N)NC(=O)[C@H](C)NC(=O)[C@@H](NC(=O)[C@H](CC(N)=O)NC(=O)[C@H](CCCNC(=N)N)NC(=O)CC)[C@@H](C)CC)C(=O)N[C@@H](C(C)C)C(=O)NCC(=O)N[C@@H](CC(=O)O)C(=O)N1)C(=O)NC(C)(C)C(=O)N[C@@H](CCCNC(=N)N)C(=O)N[C@@H](CO)C(=O)N[C@H](C(N)=O)[C@@H](C)CC [SP10] (Propionyl-RNIARHLA[S5]VGD[S5][Nle][Aib]RSI-NH2; staple 9-13)	35.591 µg·h/mL	3.605 mL/min/kg	51.7 µg/mL	21.8 h	3 h					
CC[C@H](C)[C@H](NC(C)=O)C(=O)N[C@@H](Cc1c[nH]c2ccccc12)C(=O)N[C@H](C(=O)N[C@@H](C)C(=O)N[C@@H](CCC(N)=O)C(=O)N[C@@H](CCC(=O)O)C(=O)N[C@@H](CC(C)C)C(=O)N[C@@H](CCCNC(=N)N)C(=O)N[C@@]1(C)CCCC=CCCC[C@@](C)(C(=O)N[C@@H](Cc2ccccc2)C(=O)N[C@@H](CC(N)=O)C(=O)N[C@@H](C)C(=O)N[C@@H](Cc2ccc(O)cc2)C(=O)N[C@@H](Cc2ccc(O)cc2)C(=O)N[C@@H](C)C(=O)N[C@@H](CCCNC(=N)N)C(=O)N[C@@H](CCCNC(=N)N)C(N)=O)NC(=O)[C@H](CC(=O)O)NC(=O)CNC(=O)[C@H]([C@@H](C)CC)NC1=O)[C@@H](C)CC (single isomer, unassigned) [SP2]	170.685 µg·h/mL	1.36 mL/min/kg	70.3 µg/mL	5.7 h	3.1 h					
CCCC[C@H](NC(=O)[C@]1(C)CCCC=CCCC[C@](C)(NC(=O)[C@H](C)NC(=O)[C@H](CC(C)C)NC(=O)[C@]2(C)CCCC=CCCCCC(=O)N[C@@H]([C@@H](C)CC)C(=O)N[C@@H](C)C(=O)N[C@@H](CCCNC(=N)N)C(=O)N2)C(=O)N[C@@H](C(C)C)C(=O)NCC(=O)N[C@@H](CC(=O)O)C(=O)N1)C(=O)N[C@@H](CC(=O)O)C(=O)N[C@@H](CCCNC(=N)N)C(=O)N[C@@H](CO)C(=O)N[C@H](C(N)=O)[C@@H](C)CC [*SP12]	69.035 µg·h/mL	0.503 mL/min/kg	6.4 µg/mL	5.9 h	9.2 h					
CC[C@H](C)[C@H](NC(C)=O)C(=O)N[C@@H](Cc1c[nH]c2ccccc12)C(=O)N[C@H](C(=O)N[C@@H](C)C(=O)N[C@@H](CCC(N)=O)C(=O)N[C@@H](CCC(=O)O)C(=O)N[C@@H](CC(C)C)C(=O)N[C@@H](CCCNC(=N)N)C(=O)N[C@@]1(C)CCCC=CCCC[C@@](C)(C(=O)N[C@@H](Cc2ccccc2)C(=O)N[C@@H](CC(N)=O)C(=O)N[C@@H](C)C(=O)N[C@@H](Cc2ccc(O)cc2)C(=O)N[C@@H](Cc2ccc(O)cc2)C(=O)N[C@@H](C)C(=O)N[C@@H](CCCNC(=N)N)C(=O)N[C@@H](CCCNC(=N)N)C(N)=O)NC(=O)[C@H](CC(=O)O)NC(=O)CNC(=O)[C@H]([C@@H](C)CC)NC1=O)[C@@H](C)CC (single isomer, unassigned) [SP2 3 mg/kg IV monkey]							110.669 µg·h/mL	51.54 µg/mL	1.9 h	2 h
CCC(=O)N[C@@H](CCCNC(=N)N)C(=O)N[C@@H](CC(N)=O)C(=O)N[C@H](C(=O)N[C@@H](C)C(=O)N[C@@H](CCCNC(=N)N)C(=O)N[C@@H](Cc1c[nH]cn1)C(=O)N[C@@H](CC(C)C)C(=O)N[C@@H](C)C(=O)N[C@@]1(C)CCCC=CCCC[C@@](C)(C(=O)N[C@@H](Cc2ccccc2)C(=O)N[C@@H](C)C(=O)N[C@@H](CCCNC(=N)N)C(=O)N[C@@H](CO)C(=O)N[C@H](C(N)=O)[C@@H](C)CC)NC(=O)[C@H](CC(=O)O)NC(=O)C(C)(C)NC(=O)[C@H](C(C)C)NC1=O)[C@@H](C)CC [SP8] (Propionyl-RNIARHLA[S5]V[Aib]D[S5]FARSI-NH2; staple 9-13)	73.751 µg·h/mL	1.997 mL/min/kg	148 µg/mL	19.9 h	2.3 h					
CC[C@H](C)[C@H](NC(C)=O)C(=O)N[C@@H](Cc1c[nH]c2ccccc12)C(=O)N[C@H](C(=O)N[C@@H](C)C(=O)N[C@@H](CCC(N)=O)C(=O)N[C@@H](CCC(=O)O)C(=O)N[C@@H](CC(C)C)C(=O)N[C@@H](CCCNC(=N)N)C(=O)N[C@@]1(C)CCCC=CCCC[C@@](C)(C(=O)N[C@@H](Cc2ccccc2)C(=O)N[C@@H](CC(N)=O)C(=O)N[C@@H](C)C(=O)N[C@@H](Cc2ccc(O)cc2)C(=O)N[C@@H](Cc2ccc(O)cc2)C(=O)N[C@@H](C)C(=O)N[C@@H](CCCNC(=N)N)C(=O)N[C@@H](CCCNC(=N)N)C(N)=O)NC(=O)[C@H](CC(=O)O)NC(=O)CNC(=O)[C@H]([C@@H](C)CC)NC1=O)[C@@H](C)CC (single isomer, unassigned) [SP2 10 mg/kg IV rat]							170.685 µg·h/mL	70.325 µg/mL	3.1 h	5.7 h
CCCC[C@H](NC(=O)[C@]1(C)CCCC=CCCC[C@](C)(NC(=O)[C@H](C)NC(=O)[C@H](CC(C)C)NC(=O)[C@H](Cc2c[nH]cn2)NC(=O)[C@H](CCCNC(=N)N)NC(=O)[C@H](C)NC(=O)[C@@H](NC(=O)[C@H](CC(N)=O)NC(=O)[C@H](CCCNC(=N)N)NC(=O)CC)[C@@H](C)CC)C(=O)N[C@@H](C(C)C)C(=O)NC(C)(C)C(=O)N[C@@H](CC(=O)O)C(=O)N1)C(=O)N[C@@H](CC(=O)O)C(=O)N[C@@H](CCCNC(=N)N)C(=O)N[C@@H](CO)C(=O)N[C@H](C(N)=O)[C@@H](C)CC [SP5] (Propionyl-RNIARHLA[S5]V[Aib]D[S5][Nle]DRSI-NH2; staple 9-13)	127.629 µg·h/mL	1.52 mL/min/kg	271 µg/mL	2.4 h	0.6 h					
CC[C@H](C)[C@H](NC(C)=O)C(=O)N[C@@H](Cc1c[nH]c2ccccc12)C(=O)N[C@H](C(=O)N[C@@H](C)C(=O)N[C@@H](CCC(N)=O)C(=O)N[C@@H](CCC(=O)O)C(=O)N[C@@H](CC(C)C)C(=O)N[C@@H](CCCNC(=N)N)C(=O)N[C@@]1(C)CCCC=CCCC[C@@](C)(C(=O)N[C@@H](Cc2ccccc2)C(=O)N[C@@H](CC(N)=O)C(=O)N[C@@H](C)C(=O)N[C@@H](Cc2ccc(O)cc2)C(=O)N[C@@H](Cc2ccc(O)cc2)C(=O)N[C@@H](C)C(=O)N[C@@H](CCCNC(=N)N)C(=O)N[C@@H](CCCNC(=N)N)C(N)=O)NC(=O)[C@H](CC(=O)O)NC(=O)CNC(=O)[C@H]([C@@H](C)CC)NC1=O)[C@@H](C)CC (single isomer, unassigned) [SP2 10 mg/kg IV monkey]							427.932 µg·h/mL	180.01 µg/mL	2.2 h	1.9 h
CC[C@H](C)[C@H](NC(C)=O)C(=O)N[C@@H](Cc1c[nH]c2ccccc12)C(=O)N[C@H](C(=O)N[C@@H](C)C(=O)N[C@@H](CCC(N)=O)C(=O)N[C@@H](CCC(N)=O)C(=O)N[C@@H](CC(C)C)C(=O)N[C@@H](CCCNC(=N)N)C(=O)N[C@@]1(C)CCCC=CCCC[C@@](C)(C(=O)N[C@@H](Cc2ccccc2)C(=O)N[C@@H](CC(N)=O)C(=O)N[C@@H](C)C(=O)N[C@@H](Cc2ccc(O)cc2)C(=O)N[C@@H](Cc2ccc(O)cc2)C(=O)N[C@@H](C)C(=O)N[C@@H](CCCNC(=N)N)C(=O)N[C@@H](CCCNC(=N)N)C(N)=O)NC(=O)[C@H](CC(=O)O)NC(=O)CNC(=O)[C@H]([C@@H](C)CC)NC1=O)[C@@H](C)CC [SP3]	156.183 µg·h/mL	1.1 mL/min/kg	186 µg/mL	11.1 h	4.3 h					
